Data taken from the kinase profiling compilation of Christmann-Franck et al. (2016).
Blank lines part the entries; values can stand above or below the compound they belong to.

How the values were obtained:
Experiment in all cases: radiometric filter-binding kinase assay, Kinase HotSpot
Conditions in all cases: compound 0.5 µM; ATP 10 µM
LTK (human) = LTK (human) (UniProt P29376)
DYRK1B (human) = DYRK1B (human) (UniProt Q9Y463)
STK33 (human) = STK33 (human) (UniProt Q9BYT3)
PRKCH (human) = PRKCH (human) (UniProt P24723)
Sequence of PRKCH (human) (P24723 whole entry, looked up): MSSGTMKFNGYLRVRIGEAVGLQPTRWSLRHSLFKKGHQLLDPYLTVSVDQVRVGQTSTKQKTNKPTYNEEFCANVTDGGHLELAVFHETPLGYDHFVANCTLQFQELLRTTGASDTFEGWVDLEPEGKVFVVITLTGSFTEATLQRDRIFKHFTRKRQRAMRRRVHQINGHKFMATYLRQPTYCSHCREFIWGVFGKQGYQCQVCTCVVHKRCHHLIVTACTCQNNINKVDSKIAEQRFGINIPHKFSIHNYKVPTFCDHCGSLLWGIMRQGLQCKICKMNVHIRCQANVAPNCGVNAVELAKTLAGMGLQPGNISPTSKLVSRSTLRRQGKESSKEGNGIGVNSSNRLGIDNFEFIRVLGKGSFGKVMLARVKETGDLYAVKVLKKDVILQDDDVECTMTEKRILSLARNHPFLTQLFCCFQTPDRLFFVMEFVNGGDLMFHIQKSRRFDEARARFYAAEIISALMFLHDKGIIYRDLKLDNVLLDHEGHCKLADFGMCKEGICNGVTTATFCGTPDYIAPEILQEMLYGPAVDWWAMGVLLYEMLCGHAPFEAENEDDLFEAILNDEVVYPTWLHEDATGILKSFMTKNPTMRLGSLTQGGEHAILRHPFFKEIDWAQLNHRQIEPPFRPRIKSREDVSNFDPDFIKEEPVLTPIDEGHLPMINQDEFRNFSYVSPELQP

CDK1 CCNB1 (human) = CDK1 CCNB1 (human) (UniProt P06493+P14635)
Sequence of CDK1 CCNB1 (human) (P06493 whole entry, looked up): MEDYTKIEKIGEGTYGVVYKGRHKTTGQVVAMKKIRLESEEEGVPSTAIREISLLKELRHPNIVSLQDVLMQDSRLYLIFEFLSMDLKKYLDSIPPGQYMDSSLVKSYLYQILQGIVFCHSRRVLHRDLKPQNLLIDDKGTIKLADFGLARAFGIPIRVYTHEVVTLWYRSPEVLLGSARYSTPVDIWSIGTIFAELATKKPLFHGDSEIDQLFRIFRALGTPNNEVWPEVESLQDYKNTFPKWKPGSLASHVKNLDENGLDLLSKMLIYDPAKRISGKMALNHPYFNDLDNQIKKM
Sequence of CDK1 CCNB1 (human) (P14635 whole entry, looked up): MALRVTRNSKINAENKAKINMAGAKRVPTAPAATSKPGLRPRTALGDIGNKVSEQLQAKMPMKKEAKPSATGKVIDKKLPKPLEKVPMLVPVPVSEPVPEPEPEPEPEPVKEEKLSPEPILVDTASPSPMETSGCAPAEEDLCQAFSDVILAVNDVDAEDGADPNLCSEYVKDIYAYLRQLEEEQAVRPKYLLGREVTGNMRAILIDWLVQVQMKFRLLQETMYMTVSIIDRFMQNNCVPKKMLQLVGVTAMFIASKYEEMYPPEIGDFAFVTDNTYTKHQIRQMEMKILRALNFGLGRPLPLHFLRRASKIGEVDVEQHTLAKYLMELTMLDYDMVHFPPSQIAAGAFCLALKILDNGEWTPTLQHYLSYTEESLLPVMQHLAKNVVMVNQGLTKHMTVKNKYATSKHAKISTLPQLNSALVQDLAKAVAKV

CDK2 CCNA2 (human) = CDK2 CCNA2 (human) (UniProt P24941+P20248)
Sequence of CDK2 CCNA2 (human) (P20248 whole entry, looked up, other chains not shown): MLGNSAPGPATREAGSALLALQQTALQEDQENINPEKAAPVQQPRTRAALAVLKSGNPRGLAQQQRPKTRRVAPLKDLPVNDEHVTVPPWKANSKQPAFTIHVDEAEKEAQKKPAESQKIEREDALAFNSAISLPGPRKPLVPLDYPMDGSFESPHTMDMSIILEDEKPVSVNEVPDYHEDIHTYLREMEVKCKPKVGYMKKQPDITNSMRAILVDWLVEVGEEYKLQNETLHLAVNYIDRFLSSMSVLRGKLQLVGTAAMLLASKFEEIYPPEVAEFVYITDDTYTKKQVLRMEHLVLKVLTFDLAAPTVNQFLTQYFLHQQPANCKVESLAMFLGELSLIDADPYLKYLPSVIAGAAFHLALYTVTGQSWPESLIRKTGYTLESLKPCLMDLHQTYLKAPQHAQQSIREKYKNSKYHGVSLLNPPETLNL

MAP3K7 TAB1 (human) = MAP3K7 TAB1 (human) (UniProt O43318+Q15750)
CDK2 CCNE1 (human) = CDK2 CCNE1 (human) (UniProt P24941+P24864)
CDK9 CCNT1 (human) = CDK9 CCNT1 (human) (UniProt P50750+O60563)
CDK3 CCNE1 (human) = CDK3 CCNE1 (human) (UniProt Q00526+P24864)
CDK7 CCNH MNAT1 (human) = CDK7 CCNH MNAT1 (human) (UniProt P50613+P51948+P51946)
CDK1 CCNA2 (human) = CDK1 CCNA2 (human) (UniProt P06493+P20248)
Sequence of CDK1 CCNA2 (human) (P06493 whole entry, looked up): as the sequence (P06493 whole entry, looked up) above
Sequence of CDK1 CCNA2 (human) (P20248 whole entry, looked up): as the sequence (P20248 whole entry, looked up, other chains not shown) above

CDK5 CDK5R1 p25 (human) = CDK5 CDK5R1 p25 (human) (UniProt Q00535+Q15078)
CDK4 CCND1 (human) = CDK4 CCND1 (human) (UniProt P24385+P11802)
CDK6 CCND3 (human) = CDK6 CCND3 (human) (UniProt P30281+Q00534)
Sequence of CDK6 CCND3 (human) (P30281 whole entry, looked up): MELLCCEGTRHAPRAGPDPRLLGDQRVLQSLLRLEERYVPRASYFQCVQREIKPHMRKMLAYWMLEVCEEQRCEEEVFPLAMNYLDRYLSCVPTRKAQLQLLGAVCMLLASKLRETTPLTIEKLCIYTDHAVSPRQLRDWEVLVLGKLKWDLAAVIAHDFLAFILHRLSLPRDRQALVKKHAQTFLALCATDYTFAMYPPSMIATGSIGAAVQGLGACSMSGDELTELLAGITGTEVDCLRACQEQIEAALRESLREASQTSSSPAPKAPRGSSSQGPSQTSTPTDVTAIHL
Sequence of CDK6 CCND3 (human) (Q00534 whole entry, looked up): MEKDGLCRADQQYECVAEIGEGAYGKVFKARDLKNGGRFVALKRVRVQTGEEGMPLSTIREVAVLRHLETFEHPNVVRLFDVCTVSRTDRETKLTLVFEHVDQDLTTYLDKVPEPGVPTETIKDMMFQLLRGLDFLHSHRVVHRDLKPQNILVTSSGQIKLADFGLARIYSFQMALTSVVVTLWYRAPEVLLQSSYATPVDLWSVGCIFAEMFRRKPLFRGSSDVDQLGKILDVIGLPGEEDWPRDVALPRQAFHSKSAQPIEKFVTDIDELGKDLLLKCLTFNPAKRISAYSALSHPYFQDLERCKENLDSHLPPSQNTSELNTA

CDK6 CCND1 (human) = CDK6 CCND1 (human) (UniProt Q00534+P24385)
CDK9 CCNK (human) = CDK9 CCNK (human) (UniProt O75909+P50750)
Sequence of CDK9 CCNK (human) (O75909 whole entry, looked up): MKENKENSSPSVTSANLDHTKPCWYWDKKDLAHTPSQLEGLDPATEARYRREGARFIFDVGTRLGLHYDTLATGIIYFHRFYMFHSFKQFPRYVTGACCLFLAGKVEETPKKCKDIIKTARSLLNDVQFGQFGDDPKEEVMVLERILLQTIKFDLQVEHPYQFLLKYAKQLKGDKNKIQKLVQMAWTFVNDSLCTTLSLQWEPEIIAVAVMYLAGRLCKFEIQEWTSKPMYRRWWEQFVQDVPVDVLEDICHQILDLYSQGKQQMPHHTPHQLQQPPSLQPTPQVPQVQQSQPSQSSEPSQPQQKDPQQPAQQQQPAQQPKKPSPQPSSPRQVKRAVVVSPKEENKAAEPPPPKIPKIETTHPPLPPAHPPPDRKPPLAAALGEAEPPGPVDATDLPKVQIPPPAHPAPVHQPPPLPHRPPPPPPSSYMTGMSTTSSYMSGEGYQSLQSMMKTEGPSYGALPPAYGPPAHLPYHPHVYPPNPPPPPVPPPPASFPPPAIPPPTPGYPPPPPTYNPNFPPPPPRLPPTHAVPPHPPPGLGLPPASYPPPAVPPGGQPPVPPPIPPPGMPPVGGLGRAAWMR
Sequence of CDK9 CCNK (human) (P50750 whole entry, looked up): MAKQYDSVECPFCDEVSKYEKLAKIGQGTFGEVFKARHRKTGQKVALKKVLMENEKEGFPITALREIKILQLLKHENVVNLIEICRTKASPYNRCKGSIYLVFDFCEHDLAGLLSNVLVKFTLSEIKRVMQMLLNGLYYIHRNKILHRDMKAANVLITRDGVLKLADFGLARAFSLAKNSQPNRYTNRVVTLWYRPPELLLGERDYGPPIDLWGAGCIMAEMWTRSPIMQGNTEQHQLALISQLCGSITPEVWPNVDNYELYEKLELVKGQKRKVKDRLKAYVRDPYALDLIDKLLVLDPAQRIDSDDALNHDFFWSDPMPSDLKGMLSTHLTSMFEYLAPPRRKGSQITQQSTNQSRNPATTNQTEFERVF

CDK5 CDK5R1 p35 (human) = CDK5 CDK5R1 p35 (human) (UniProt Q00535+Q15078)
CDK4 CCND3 (human) = CDK4 CCND3 (human) (UniProt P30281+P11802)
EPHB2 (human) = EPHB2 (human) (UniProt P29323)
FRK (human) = FRK (human) (UniProt P42685)
TLK2 (human) = TLK2 (human) (UniProt Q86UE8)

Sequence of STK33 (human) (Q9BYT3 whole entry, looked up): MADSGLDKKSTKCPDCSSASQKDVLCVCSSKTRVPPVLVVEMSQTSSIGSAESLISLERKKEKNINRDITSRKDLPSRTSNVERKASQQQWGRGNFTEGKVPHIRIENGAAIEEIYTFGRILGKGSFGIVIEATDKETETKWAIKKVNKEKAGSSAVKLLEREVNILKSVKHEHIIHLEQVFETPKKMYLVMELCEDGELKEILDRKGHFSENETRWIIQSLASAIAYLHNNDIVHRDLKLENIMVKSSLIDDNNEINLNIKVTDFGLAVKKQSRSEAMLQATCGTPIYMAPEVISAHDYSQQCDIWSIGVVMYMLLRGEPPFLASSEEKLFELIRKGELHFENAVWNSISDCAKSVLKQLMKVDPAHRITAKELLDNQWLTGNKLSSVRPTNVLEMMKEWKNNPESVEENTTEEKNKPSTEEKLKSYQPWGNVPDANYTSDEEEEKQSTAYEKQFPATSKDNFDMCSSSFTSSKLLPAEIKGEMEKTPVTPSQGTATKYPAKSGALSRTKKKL
Sequence of DYRK1B (human) (Q9Y463 whole entry, looked up): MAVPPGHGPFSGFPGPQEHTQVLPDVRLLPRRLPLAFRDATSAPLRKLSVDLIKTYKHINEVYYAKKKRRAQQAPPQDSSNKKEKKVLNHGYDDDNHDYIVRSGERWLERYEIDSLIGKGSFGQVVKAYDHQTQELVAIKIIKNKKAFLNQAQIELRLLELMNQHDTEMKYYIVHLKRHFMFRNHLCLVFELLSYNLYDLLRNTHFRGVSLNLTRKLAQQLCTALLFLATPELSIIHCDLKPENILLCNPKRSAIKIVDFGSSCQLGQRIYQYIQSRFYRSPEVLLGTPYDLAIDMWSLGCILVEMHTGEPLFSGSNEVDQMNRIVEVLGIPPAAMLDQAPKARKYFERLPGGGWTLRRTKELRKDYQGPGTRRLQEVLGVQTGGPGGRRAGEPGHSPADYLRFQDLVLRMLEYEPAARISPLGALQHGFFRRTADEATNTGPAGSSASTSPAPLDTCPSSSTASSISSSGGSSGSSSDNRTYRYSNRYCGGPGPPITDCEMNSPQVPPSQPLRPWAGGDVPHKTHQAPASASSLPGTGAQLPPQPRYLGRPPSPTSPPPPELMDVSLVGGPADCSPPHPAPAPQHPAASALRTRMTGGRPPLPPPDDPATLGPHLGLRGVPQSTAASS

residual activity (PRKCH (human)): 94.9%
SMILES: O=C(Nc1nc2ccccc2n1CCN1CCOCC1)c1cccc([N+](=O)[O-])c1

residual activity (CDK1 CCNB1 (human)): 93.9% | residual activity (CDK2 CCNA2 (human)): 92.4% | residual activity (EPHB2 (human)): -0.191% | residual activity (MAP3K7 TAB1 (human)): 87.3% | residual activity (CDK2 CCNE1 (human)): 95.9% | residual activity (CDK9 CCNT1 (human)): 84.1% | residual activity (CDK3 CCNE1 (human)): 91.7% | residual activity (CDK7 CCNH MNAT1 (human)): 112% | residual activity (FRK (human)): -0.878% | residual activity (CDK1 CCNA2 (human)): 96.3% | residual activity (CDK5 CDK5R1 p25 (human)): 102% | residual activity (CDK4 CCND1 (human)): 94.4% | residual activity (CDK6 CCND3 (human)): 103% | residual activity (CDK6 CCND1 (human)): 95.5% | residual activity (CDK9 CCNK (human)): 104% | residual activity (PRKCH (human)): 106% | residual activity (CDK5 CDK5R1 p35 (human)): 101% | residual activity (CDK4 CCND3 (human)): 99.1%
SMILES: Cc1nc(Nc2ncc(C(=O)Nc3c(C)cccc3Cl)s2)cc(N2CCN(CCO)CC2)n1

residual activity (TLK2 (human)): 98.5% | residual activity (PRKCH (human)): 94.7%
SMILES: Cc1cc(C)c(/C=C2\C(=O)Nc3ccccc32)[nH]1

Second part, the compound before the results:

SMILES: O=[N+]([O-])/C=C/c1ccc2c(c1)OCO2
residual activity (LTK (human)): 96.4% | residual activity (DYRK1B (human)): 112% | residual activity (STK33 (human)): 94.2% | residual activity (PRKCH (human)): 103%

SMILES: COC[C@H]1OC(=O)c2coc3c2[C@@]1(C)C1=C(C3=O)[C@@H]2CCC(=O)[C@@]2(C)C[C@H]1OC(C)=O
residual activity (CDK1 CCNB1 (human)): 101% | residual activity (CDK2 CCNA2 (human)): 93.5% | residual activity (MAP3K7 TAB1 (human)): 97.2% | residual activity (CDK2 CCNE1 (human)): 105% | residual activity (CDK9 CCNT1 (human)): 93.7% | residual activity (CDK3 CCNE1 (human)): 95.2% | residual activity (CDK7 CCNH MNAT1 (human)): 93.3% | residual activity (DYRK1B (human)): 100% | residual activity (STK33 (human)): 88.2% | residual activity (CDK1 CCNA2 (human)): 97% | residual activity (CDK5 CDK5R1 p25 (human)): 87.6% | residual activity (CDK4 CCND1 (human)): 94.8% | residual activity (CDK6 CCND3 (human)): 85.8% | residual activity (CDK6 CCND1 (human)): 90.1% | residual activity (CDK9 CCNK (human)): 107% | residual activity (PRKCH (human)): 100% | residual activity (CDK5 CDK5R1 p35 (human)): 88.7% | residual activity (CDK4 CCND3 (human)): 98.8%

SMILES: CO[C@H]1[C@@H](OC)C[C@H](C)[C@@H](OC)C2=CC(=O)C=C(NC(=O)/C(C)=C\C=C/[C@H](OC)[C@@H](OC(N)=O)/C(C)=C\[C@@H]1C)C2=O
residual activity (LTK (human)): 98.5% | residual activity (DYRK1B (human)): 104% | residual activity (STK33 (human)): 97% | residual activity (PRKCH (human)): 95.3%

SMILES: CC(C)n1cnc2c(NCc3ccccc3)nc(NCCCO)nc21
residual activity (PRKCH (human)): 77%
